Measured values taken from US6967102B1, “Nitric oxide manipulation of muscle satellite cell activation” (University of Manitoba, priority 1999, dated 2005).
Entries after “also recorded” stand apart in the source; their conditions may differ.

Columns and labels:
satellite cells [1] = test: Cell yield time course 0–30 min after crush injury of right tibialis anterior, mdx mice; assay type: in vivo; conditions: L-NAME
[2] = Muscle weight to body weight (edema) and haemorrhage after crush injury, normal mice; assay type: in vivo, normal mice (C57BL/6); conditions: ip treatment 30 min before crush; 0–30 min after injury
[3] = Muscle weight to body weight (edema) and haemorrhage after crush injury, mdx mice; assay type: in vivo; conditions: L-NAME ip 30 min before crush
satellite cells [4] = test: Histology and immunostaining (m-cadherin, c-met, HGF/SF) of satellite cells 0 and 10 min after crush; assay type: in vivo, normal mice
Description: A separate experiment was conducted to study the immediate effects of injury on muscle and satellite cell histology. […] Muscles were bisected longitudinally, and half of each muscle was frozen in OCT. for cryosectioning. Sections were stained with H&E or immunostained using primary antibodies to c-met (1:400), HGF/SF (1:1000, R&D Systems) or developmental myosin heavy chain ([…], 1:250, Novocastra Laboratories) as reported ([…] et al. (1996) Exp. Cell Res. 22: 214-222; Tatsumi et al. (1998) Dev. Biol. 194: 114-128) or against m-cadherin (1:50, Santa Cruz). […] Sections and cultures were viewed on an Olympus microscope equipped with epifluorescence and phase contrast optics. […] In the case of muscle regenerating from crush injury, observations (without knowledge of treatment group) were made in pre-set fields of muscle from the central crush region, the adjacent regenerating region and the surviving region as reported (McIntosh et al. (1994) Muscle Nerve 17: 444-453). Representative photographs of muscle fibers and satellite cells were taken on over 700 frames of ASA 400 Fuji […] slide film. Where stated, the number of satellite cells observed in each category, group or condition was estimated from photographed slides rather than from direct counts made during observations under oil immersion. Selected slides were scanned (Olympus Film Scanner ES-10, Olympus Optical Co., Tokyo), formatted into plates with little or no enlargement and printed (Freehand 8.0, Macromedia Inc.).

NOS = target: T1, NOS (Mus musculus, UniProt Q9Z0J4); test: NADPH-diaphorase enzyme histochemistry of NOS activity on muscle sections; assay type: in vivo, mice
T1 construct: confirmed using NADPH-diaphorase enzyme histochemistry on frozen sections; from tissue; host or cells: frozen sections of tibialis anterior muscle from normal mice pretreated ip with saline or L-NAME
Description: Sections ([…]) were collected on glass slides and stained with toluidine blue. The inhibition of NOS enzyme activity by L-NAME treatment 30 min. before crush was confirmed using NADPH-diaphorase enzyme histochemistry on frozen sections with jejunal epithelium as the positive control, according to Beesley (1995) Histochem. J. 27: 757–769.
i) satellite cells are identified and examined for hypertrophy and position using immunostaining for two c-met receptor, m-cadherin, neural cell adhesion molecule (N-CAM or leu19) and CD34, as markers of muscle satellite precursor cells (Irintchev A, Zeschnigk M. Starzinski-Powitz A, and Wernig A. (1994). Dev. […] In other sections c-met and HGF colocalization are used to assess activation (after (Tatsumi R, Anderson J E, Nevoret C J, Halevy 0, and Allen R E. (1998). Dev. Biol. 194:114–128). Routine fluorescent or peroxidase-conjugated secondary antibodies are used to visualize labelled satellite cells. • ii) NOS activity are determined to assess the effect of treatments that manipulate NOS activity. […] This method is modified to study homogenized tissue NOS activity. • iii) NOS expression is determined using in situ hybridisation (and Northern blotting) with a riboprobe specific for NOS-Iμ (the muscle isoform of NOS-I), made with custom primers (Kobzik L, Reid M B, Bredt D S, and Stamler J S. (1994). […]

dystrophic muscle = test: Longer term systemic L-NAME treatment, severity of dystrophy in mdx mice; assay type: in vivo; conditions: systemic L-NAME (3 weeks / drinking water); young mdx animals; diaphragm, SOL, EDL, TA
Excerpt: The present results address for the first time the initial steps of satellite cell activation. A single exposure to NOS inhibition had subtle effects on myotube formation that echo NO-stimulated myoblast fusion in vitro. Longer NOS inhibition reduced the effectiveness of repair and restricted its distribution, in agreement with the idea that shear-induced responses become attenuated longitudinally away from the injury. The significant negative effect of pharmacologic NOS inhibition on myogenic repair reported here was further extended by the recent preliminary studies on repair in NOS-I knockout mice (n≈2), and during longer term NOS inhibition in mdx mice (n≈22).
A study of 4 groups (n≈10/group) of mdx dystrophic mice treated with placebo, deflazacort, deflazacort plus L-NAME (a NOS inhibitor), or deflazacort plus L-arginine (a […]). Deflazacort was given by daily injection (ip) and L-NAME and L-arginine were given systemically in the drinking water.

T1 sequence (Q9Z0J4 1-1463 isoform Q9Z0J4-5): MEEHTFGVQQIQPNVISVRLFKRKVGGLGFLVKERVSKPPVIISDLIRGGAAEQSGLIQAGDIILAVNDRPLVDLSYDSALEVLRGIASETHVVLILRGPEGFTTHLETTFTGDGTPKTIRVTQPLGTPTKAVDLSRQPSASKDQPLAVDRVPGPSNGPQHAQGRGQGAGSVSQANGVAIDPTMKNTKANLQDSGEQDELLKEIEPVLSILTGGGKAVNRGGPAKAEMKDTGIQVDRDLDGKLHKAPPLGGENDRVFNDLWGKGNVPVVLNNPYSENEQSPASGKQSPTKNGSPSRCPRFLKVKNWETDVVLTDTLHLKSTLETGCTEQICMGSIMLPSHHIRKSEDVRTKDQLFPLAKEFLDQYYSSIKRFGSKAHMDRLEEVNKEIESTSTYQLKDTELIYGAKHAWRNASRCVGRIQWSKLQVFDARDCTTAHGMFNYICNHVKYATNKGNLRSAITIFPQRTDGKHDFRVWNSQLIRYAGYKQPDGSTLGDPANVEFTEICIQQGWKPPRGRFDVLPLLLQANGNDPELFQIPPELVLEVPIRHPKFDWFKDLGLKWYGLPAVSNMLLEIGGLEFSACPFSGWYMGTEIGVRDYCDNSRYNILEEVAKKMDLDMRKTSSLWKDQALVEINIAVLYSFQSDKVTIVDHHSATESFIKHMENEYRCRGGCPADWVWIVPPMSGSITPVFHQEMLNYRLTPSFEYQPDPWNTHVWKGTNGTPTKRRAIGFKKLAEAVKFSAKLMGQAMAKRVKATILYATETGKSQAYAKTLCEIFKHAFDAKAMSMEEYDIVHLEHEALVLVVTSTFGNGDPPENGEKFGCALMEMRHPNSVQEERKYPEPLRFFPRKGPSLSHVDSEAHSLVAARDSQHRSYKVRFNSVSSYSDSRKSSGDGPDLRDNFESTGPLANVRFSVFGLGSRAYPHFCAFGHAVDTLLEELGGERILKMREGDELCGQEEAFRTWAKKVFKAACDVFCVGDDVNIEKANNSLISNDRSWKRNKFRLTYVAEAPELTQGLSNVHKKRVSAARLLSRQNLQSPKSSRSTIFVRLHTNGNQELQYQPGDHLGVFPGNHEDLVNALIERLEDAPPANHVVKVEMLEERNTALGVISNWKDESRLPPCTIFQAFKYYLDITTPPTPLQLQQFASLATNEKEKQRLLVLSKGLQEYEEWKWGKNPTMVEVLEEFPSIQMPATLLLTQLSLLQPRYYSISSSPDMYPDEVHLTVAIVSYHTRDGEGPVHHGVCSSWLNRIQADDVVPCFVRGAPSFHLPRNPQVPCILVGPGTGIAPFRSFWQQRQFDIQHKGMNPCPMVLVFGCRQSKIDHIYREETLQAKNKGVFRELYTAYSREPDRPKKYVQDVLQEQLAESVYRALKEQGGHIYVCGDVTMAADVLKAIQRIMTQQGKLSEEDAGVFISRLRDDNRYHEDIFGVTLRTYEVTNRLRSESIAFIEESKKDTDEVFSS

SMILES: COC(=O)[C@@H](N)CCCNC(=N)N[N+](=O)[O-] [L-NAME, Nω-nitro-L-arginine methyl ester]
- increase of LTA cell yield at 10 min (satellite cells [1]): 50%
- RSOL cell yield (satellite cells [1]; 0–30 min): did not change over time
- RTA cell yield time course (satellite cells [1]; 0–30 min): rose slowly over the 30 min. time course; also recorded: decreased and further delayed the peak of myogenic cells; also recorded: prevented the increased RTA yield at 10 min
- muscle weight profile (RTA relative to LTA; muscle weight as proportion of body weight) [2]: RTA weight increased only at 10 min. relative to LTA
- increase in RTA weight after injury [3]: abolished the increase in RTA weight for 30 min
- normal rapid changes in satellite cell size and position (satellite cells [4]; L-NAME treatment 30 min before crush): consistently delayed and restricted
- satellite cells thin and attenuated in both RTA and LTA (satellite cells [4]; L-NAME-treated mice, 0 min, more than 70 satellite cells identified): 85%
- satellite cells with c-met and HGF/SF co-localized (satellite cells [4]; L-NAME-treated mice, 10 min after injury): at least 70%
- duration of decreased NOS activity (NOS; L-NAME, after ip injection): 40 min
- NOS activity by NADPH-diaphorase staining (NOS; pre-treatment with L-NAME, muscle sections): inhibited NOS activity
- severity of dystrophy (dystrophic muscle): appeared to increase the severity of dystrophy; also recorded: makes dystrophy more severe
